Literature values in patent US10912302B2, “Glyphosate salt herbicidal composition” (Monsanto Technology LLC, priority 2004, dated 2021).

Conditions: 25° C.

SMILES: O=C(O)CNCP(=O)(O)O [Glyphosate, glyphosate]
- solubility in water: 1.16 % by weight
